Counter-ions that a name gives are not always drawn.

The test system of the first assay is mice. The assay is described as follows: 2-phenyl-1,4-benzoquinone-induced writhing test in mice (analgesia). The class given is in vivo. The settings on record: Mus musculus, sc, read-out: Dose (subcutaneous) [ED50], inhibition of writhing. On the technique in general: An intraperitoneal irritant provokes the stretching counted in writhing tests.
In the case of `CC(=O)n1nc(N2CCN(C)CC2)c2ccccc21` [1-Acetyl-3-(4-methyl-1-piperazinyl)-1H-indazole], the ED50 was found to be 2.1 mg/kg.
For the compound `CCn1nc(N2CCN(C)CC2)c2ccccc21` [1-ethyl-3-(4-methyl-1-piperazinyl)-1H-indazole], the median effective dose (ED50) was 0.5 mg/kg.
The same measure, in the same setting: as for `c1ccc2c(N3CCNCC3)n[nH]c2c1` [3-(1-piperazinyl)-1H-indazole, 3-(1-Piperazinyl)-1H-indazole], the figure is 0.9 mg/kg.
On the same count and under the same terms, as for `CN1CCN(c2n[nH]c3ccccc23)CC1` [3-(4-methyl-1-piperazinyl)-1H-indazole, 3-(4-Methyl-1-piperazinyl)-1H-indazole], the figure is 0.04 mg/kg; as for `CN1CCN(c2n[nH]c3ccc(Cl)cc23)CC1` [5-Chloro-3-(4-methyl-1-piperazinyl)-1H-indazole], 6.8 mg/kg; as for `CCC(=O)O[C@](Cc1ccccc1)(c1ccccc1)[C@H](C)CN(C)C` [propoxyphene, reference compound], 3.9 mg/kg.

Staying with this assay, now noted: Mus musculus, sc; mice, subcutaneous, 2-phenyl-1,4-benzoquinone-induced writhing; read-out: Dose (subcutaneous) [ED50], inhibition of writhing.
Consider `CN1CCN(c2nn(C(=O)c3ccccc3)c3cc(F)ccc23)CC1` [1-Benzoyl-6-fluoro-3-(4-methyl-1-piperazinyl)-1H-indazole], for which the ED50 was 4.3 mg/kg.
`CN1CCN(c2nn(CC3CC3)c3ccccc23)CC1` [1-Cyclopropylmethyl-3-(4-methyl-1-piperazinyl)-1H-indazole]: the 50% effective dose (ED50) worked out at 1.5 mg/kg.
On the same count and under the same terms, as for `Cl.Cl.OCCN1CCN(c2n[nH]c3ccccc23)CC1` [3-[4-(2-Hydroxyethyl)-1-piperazinyl]-1H-indazole dihydrochloride], the figure is 2 mg/kg; as for `Fc1ccc(C(CCCN2CCN(c3n[nH]c4ccccc34)CC2)c2ccc(F)cc2)cc1` [3-[4-[4,4-Bis(4-fluorophenyl)butyl-1-piperazinyl]-1H-indazole hydrochloride], 3.6 mg/kg.
Same read-out and setting: as for `O=C1CC2(CCCC2)CC(=O)N1CCCCN1CCN(c2n[nH]c3ccccc23)CC1` [8-[4-[1-(1H-indazol-3-yl)-4-piperazinyl]butyl-8-azaspiro[4.5]decane-7,9-dione hemifumarate], the figure is 0.07 mg/kg.

For the next assay, the system named is mice. The assay is described as follows: climbing mice assay (apomorphine-induced climbing; antipsychotic activity). The format is in vivo, CK-1 male mice. The note with it: Mus musculus, ip, read-out: Antipsychotic Activity (Climbing Mice Assay) ED50. As for the experimental part:
Antipsychotic activity is determined in the climbing mice assay by methods similar to those described by P. Protais, et al., Psychopharmacol, 50, 1 (1976) and B. Costall, Eur. J. Pharmacol., 50, 39 (1978).
The subject CK-1 male mice (23-27 grams) are group-housed under standard laboratory conditions. The mice are individually placed in wire mesh stick cages (4"×4"×10") and are allowed one hour for adaptation and exploration of the new environment. Then apomorphine is injected subcutaneously at 1.5 mg/kg, a dose causing climbing in all subjects for 30 minutes. Compounds to be tested for antipsychotic activity are injected intraperitoneally 30 minutes prior to the apomorphine challenge at a screening dose of 10 mg/kg.
For evaluation of climbing, 3 readings are taken at 10, 20 and 30 minutes after apomorphine administration according to the following scale:
4 paws on bottom (no climbing)
2 paws on the wall (rearing)
4 paws on the wall (full climb)
Mice consistently climbing before the injection of apomorphine are discarded.
With full-developed apomorphine climbing, the animals are hanging onto the cage walls, rather motionless over longer periods of time. By contrast, climbs due to mere motor stimulation usually last only a few seconds.
The climbing scores are individually totaled (maximum score: 6 per mouse over 3 readings) and the total score of the control group (vehicle intraperitoneally-apomorphine subcutaneously) is set to 100%. ED50 values with 95% confidence limits, calculated by a linear regression analysis of some of the compounds of this invention are presented in Table II.
On to `Cl.Fc1ccc2c(N3CCNCC3)n[nH]c2c1` [6-Fluoro-3-(1-piperazinyl)-1H-indazole Hydrochloride], for which the ED50 is 6.4 mg/kg.
Same read-out and setting: as for `CN1CCN(c2n[nH]c3cc(F)ccc23)CC1` [6-Fluoro-3-(4-methyl-1-piperazinyl)-1H-indazole], the figure is 4.7 mg/kg; as for `O=C(CCCN1CCC(O)(c2ccc(Cl)cc2)CC1)c1ccc(F)cc1` [haloperidol, reference compound], 0.11 mg/kg.

Still in this assay, the particulars now being: Mus musculus; male mice, ip 30 min before apomorphine 1.5 mg/kg sc; linear regression; read-out: Antipsychotic Activity (Climbing Mice Assay) ED50.
In the case of `Fc1ccc(C(CCCN2CCN(c3n[nH]c4ccccc34)CC2)c2ccc(F)cc2)cc1` [3-[4-[4,4-Bis(4-fluorophenyl)butyl-1-piperazinyl]-1H-indazole hydrochloride], the ED50 amounted to 0.87 mg/kg.
Same read-out and setting: as for `Cc1[nH]c2ccccc2c1CCCN1CCN(c2n[nH]c3ccccc23)CC1` [3-{4-[3-(2-Methylindol-3-yl)propyl]-1-piperazinyl}-1H-indazole hemifumarate], the figure is 0.4 mg/kg; as for `O=c1[nH]c2ccccc2n1CCCN1CCN(c2n[nH]c3cc(F)ccc23)CC1` [6-Fluoro-3-{4-[3-(1,3-dihydro-2-oxo-2H-benzimidazol-1-yl)propyl]-1-piperazinyl}-1H-indazole Hemifumarate], 0.43 mg/kg.
Still for that read-out and setting: as for `Cn1nc(N2CCN(CCCCN3C(=O)CC4(CCCC4)CC3=O)CC2)c2ccccc21` [8-[4-[1-(1-Methyl-1H-indazol-3-yl)-4-piperazinyl]butyl-8-azaspiro[4,5]decane-7,9-dione fumarate], the figure is 7.3 mg/kg.
Same read-out and setting: as for `O=C1CC2(CCCC2)CC(=O)N1CCCCN1CCN(c2n[nH]c3ccccc23)CC1` [8-[4-[1-(1H-indazol-3-yl)-4-piperazinyl]butyl-8-azaspiro[4.5]decane-7,9-dione hemifumarate], the figure is 0.6 mg/kg.

In general, ED50 refers to the dose that gives a 50% effect, or the effect in half of the subjects.

These data come from patent US5077405A, “3-(1-Substituted-4-piperazinyl)-1H-indazoles” (Hoechst-Roussel Pharmaceuticals Incorporated, priority 1990, dated 1991).
